Assay results from patent publication US20050272040A1, “Method for increasing synaptic growth or plasticity” (priority 2002, published 2005).

Test system: hippocampal cells
Assay: Whole-cell patch-clamp recordings of synaptic charge
Type: cell-based, rat
Settings: for Effect on synaptic charge: perfusion of synthetic rat VGF peptide, 0.1 μM
Description: To examine the relationship between synaptic response and gene expression, an individual cell's electrophysiological response to BDNF was examined in conjunction with single-cell RT-PCR for Arc. […] Whole-cell patch-clamp recordings from 16 cells verified 0.8- to 4.5-fold increase in synaptic charge following 20 minutes BDNF exposure. […] A group of BDNF-treated cells presenting a minimal synaptic response was apparent. This group was categorized as non-responders (FIG. 1B) and the other cells showing a greater response to BDNF were classified as responders. To determine whether cellular basal activity influences the response to BDNF, the average synaptic charge pre-BDNF of the responders (36±13.1 pC, n=7) versus the non-responders (23.2±6.6 pC, n=9) was compared.
To explore a functional role for VGF in neuromodulation, whole-cell patch-clamp recordings on hippocampal cells were performed in the presence of synthetic VGF peptides. The electrophysiological profile of VGF peptides on hippocampal cells was similar to that observed for BDNF (Levine et al. (1996) supra). […] Enhanced synaptic activity was maintained for up to 25 minutes in the continued presence of Thr-Leu-Gln-Pro-62 (SEQ ID NO:14). […] The effects of both Ala-Gln-Glu-Glu-30 (SEQ ID NO:16) and Thr-Leu-Gln-Pro-62 (SEQ ID NO:14) peptides were dose-dependent, saturating at 0.1 μM.
Whole-cell patch clamp recordings were performed after 10-14 days in culture. Currents were recorded with an Axoclamp 200 amplifier, digitized at 2.5 kHz with an INDEC IDA 15125 interface, filtered at 5 kHz and stored. Recording parameters and stimulus protocols were controlled by custom software written with Borland C++ that utilizes device driver libraries supplied by INDEC. Data analysis programs were written with Microsoft Visual Basic. The. external bath solution for voltage clamp recordings was (in mM) 1.67 CaCl2, 1 MgCl2, 5.36 KCl, 137 NaCl, 17 glucose, 10 HEPES and 20 sucrose (neuron recording solution, NRS). The pipette solution contained (in mM) 105 Cs-methanesulfonate, 17.5 CsCl, 10 HEPES, 0.2 EGTA, 8 NaCl, 2 Mg-ATP, 2 Na-ATP, 0.3 Na-GTP, 20 phosphocreatinine, and 50 U/ml creatinine phosphokinase. All recordings were made at room temperature. The typical range of pipette resistance was 3-5 MΩ. Cell capacitance was 10-20 pF and access resistance was 7-20 MΩ. Vacuum perfusion system contained BDNF (50 ng/ml, Preprotech, Princeton, N.J.), NRS as a control or VGF peptides (0.1 μM=740 ng/ml). Three synthetic rat VGF peptides were used: Leu-Glu-Gly-Ser-28 (SEQ ID NO:15) amino acids 285-312 (amidated), Thr-Leu-Gln-Pro-62 (SEQ ID NO:14) amino acids 556-617 and Ala-Gln-Glu-Glu-30 (SEQ ID NO:16) amino acids 588-617. Each data point represents a cell from a separate dish and at least three different platings were used for each condition.
Data were analyzed by integrating the synaptic currents for each sweep (synaptic charge). The charge measurements for all sweeps in a 1 min period were averaged (binned). Baseline is considered the average synaptic charge during the 2 min period (−2 to 0 min) in NRS immediately prior to BDNF or VGF application. Fold increases were then determined by dividing the synaptic charge during BDNF or VGF exposure by the baseline. Recordings were rejected if either the 0-5 min binned time period or 5-10 min binned time period after switching during BDNF or VGF exposure was 2×SEM below baseline, indicating “run down”.

Substance	Effect on synaptic charge	Saturating concentration of dose-dependent effect on synaptic charge [µM]	Time to increased synaptic charge (after start of peptide perfusion) [min]	Time enhanced synaptic activity was maintained (continued presence of peptide)
Leu-Glu-Gly-Ser-28: synthetic rat VGF peptide, amino acids 285-312 (amidated), N-terminal region	no change in synaptic charge			
Thr-Leu-Gln-Pro-62: synthetic rat VGF peptide, amino acids 556-617, C-terminal portion of VGF (TLQP)	Increased synaptic charge	0.1	≤ 5	up to 25 minutes
Ala-Gln-Glu-Glu-30: synthetic rat VGF peptide, amino acids 588-617, C-terminal region (AQEE)		0.1		
